The text below walks through data of PubChem BioAssay AID1259411 (Chemical Carcinogenesis Research Information System (CCRIS), 2018).

The subject of this data set is rodent carcinogenicity bioassays, tumor incidence. Description: CCRIS carcinogenicity studies. A digest of the protocol: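 NCI-built, expert-reviewed records of carcinogenicity and related test outcomes (mutagenicity, tumor promotion/inhibition) compiled from published and report sources, historical span 1985-2011, not updated.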

The source made the active and inactive calls. The rule behind the calls is not given here.

For `CCCCCCCCCN(C)N=O`, the carcinogen call (Species: RAT, Strain/Sex: F344/MALE, Route: GAVAGE, Dose: 0, 100 MG/ML IN CORN OIL 2/WK FOR 30 WK, STUDY DURATION: 60 WK, Dose: 0, 100 MG/ML IN CORN OIL 2/WK FOR 30 WK, STUDY DURATION: 60 WK, Tumor Site: Type of Lesion: LUNG: ADENOCARCINOMA, NASAL CAVITY: CARCINOMA, PAPILLOMA, LIVER: CHOLANGIOCARCINOMA, HEPATOCELLULAR TUMOR, Tumor Site: Type of Lesion: LUNG: ADENOCARCINOMA, NASAL CAVITY: CARCINOMA, PAPILLOMA, LIVER: CHOLANGIOCARCINOMA, HEPATOCELLULAR TUMOR) was “active; positive”.

`Cc1ccc2ncccc2c1`: the carcinogen call (Species: RAT, Strain/Sex: F344/MALE,FEMALE, Route: ORAL, Dose: 0.05% IN DIET FOR 2 YR) was “inactive; negative”.

`OC1C=Cc2c(cc3ccc4cccc5c6ccccc6c2c3c45)C1O` (centres undefined): the carcinogen call (Species: MOUSE, Strain/Sex: SWISS/FEMALE, Route: DERMAL, Dose: 0, 1, 4 NMOL IN 100 µL ACETONE 2/WK FOR 40 WK (STUDY DURATION: 48 WK), Dose: 0, 1, 4 NMOL IN 100 µL ACETONE 2/WK FOR 40 WK (STUDY DURATION: 48 WK), Tumor Site: Type of Lesion: SKIN: TUMORS) is “active; positive”.

On to `COc1cc(/C=C/C(=O)O[C@H]2CC[C@]34C[C@]35CC[C@]3(C)[C@@H]([C@H](C)CCC=C(C)C)CC[C@@]3(C)[C@@H]5CC[C@H]4C2(C)C)ccc1O`, for which the carcinogen call was “inactive; negative” (Species: MOUSE, Strain/Sex: B6C3F1/FEMALE, Route: ORAL, Dose: 0, 200, 600, 2000 MG/KG/BW A DAY IN DIET FOR 78 WK (STUDY DURATION: 79 WK), Dose: 0, 200, 600, 2000 MG/KG/BW A DAY IN DIET FOR 78 WK (STUDY DURATION: 79 WK)); “inactive; negative” (Species: MOUSE, Strain/Sex: B6C3F1/MALE, Route: ORAL, Dose: 0, 200, 600, 2000 MG/KG/BW A DAY IN DIET FOR 78 WK (STUDY DURATION: 79 WK), Dose: 0, 200, 600, 2000 MG/KG/BW A DAY IN DIET FOR 78 WK (STUDY DURATION: 79 WK)); “inactive; negative” (Species: RAT, Strain/Sex: F344/FEMALE, Route: ORAL, Dose: 0, 200, 600, 2000 MG/KG/BW/D IN DIET FOR 2 YR (STUDY DURATION: 105 WK), Dose: 0, 200, 600, 2000 MG/KG/BW/D IN DIET FOR 2 YR (STUDY DURATION: 105 WK)); “inactive; negative” (Species: RAT, Strain/Sex: F344/MALE, Route: ORAL, Dose: 0, 200, 600, 2000 MG/KG/BW/D IN DIET FOR 2 YR (STUDY DURATION: 105 WK), Dose: 0, 200, 600, 2000 MG/KG/BW/D IN DIET FOR 2 YR (STUDY DURATION: 105 WK)).

In the case of `CCCCCC(O)/C=C/C=O` (centres undefined), the carcinogen call is, setting by setting: (Species: MOUSE, Strain/Sex: B6C3F1/FEMALE, Route: INTRAPERITONEAL, Dose: 0, 750 NMOL TOTAL DOSE, 1/3 AND 2/3 OF THE TOTAL DOSE ADMINISTERED AT 8 AND 15 DAYS OF AGE RESPECTIVELY, ANIMALS TERMINA) “inactive; negative”; (Species: MOUSE, Strain/Sex: B6C3F1/FEMALE, Route: INTRAPERITONEAL, Dose: 0, 1500 NMOL TOTAL DOSE, 1/3 AND 2/3 OF THE TOTAL DOSE ADMINISTERED AT 8 AND 15 DAYS OF AGE RESPECTIVELY, ANIMALS TERMIN) “inactive; negative”; (Species: MOUSE, Strain/Sex: B6C3F1/MALE, Route: INTRAPERITONEAL, Dose: 0, 750 NMOL TOTAL DOSE, 1/3 AND 2/3 OF THE TOTAL DOSE ADMINISTERED AT 8 AND 15 DAYS OF AGE RESPECTIVELY, ANIMALS TERMINA) “inactive; negative”; (Species: MOUSE, Strain/Sex: B6C3F1/MALE, Route: INTRAPERITONEAL, Dose: 0, 1500 NMOL TOTAL DOSE, 1/3 AND 2/3 OF THE TOTAL DOSE ADMINISTERED AT 8 AND 15 DAYS OF AGE RESPECTIVELY, ANIMALS TERMIN) “inactive; negative”; (Species: MOUSE, Strain/Sex: CD-1/FEMALE, Route: INTRAPERITONEAL, Dose: 0, 50, 100, 200 NMOL/MOUSE (TOTAL DOSE) ADMINISTERED IN 3 DOSES ON DAY 1, 8 AND 15 OF STUDY (STUDY DURATION: 6 WK), Dose: 0, 50, 100, 200 NMOL/MOUSE (TOTAL DOSE) ADMINISTERED IN 3 DOSES ON DAY 1, 8 AND 15 OF STUDY (STUDY DURATION: 6 WK)) “inactive; negative”; (Species: MOUSE, Strain/Sex: CD-1/MALE, Route: INTRAPERITONEAL, Dose: 0, 50, 100, 200 NMOL/MOUSE (TOTAL DOSE) ADMINISTERED IN 3 DOSES ON DAY 1, 8 AND 15 OF STUDY (STUDY DURATION: 6 WK), Dose: 0, 50, 100, 200 NMOL/MOUSE (TOTAL DOSE) ADMINISTERED IN 3 DOSES ON DAY 1, 8 AND 15 OF STUDY (STUDY DURATION: 6 WK)) “inactive; negative”.

For `O=C/C(Br)=C/c1ccccc1`, under “Species: MOUSE, Strain/Sex: SLC:DDY/FEMALE, Route: DERMAL, Dose: 0, 0.25, 1, 4% IN OLIVE OIL 2/WK FOR 79 WK (STUDY DURATION: 79 WK), Dose: 0, 0.25, 1, 4% IN OLIVE OIL 2/WK FOR 79 WK (STUDY DURATION: 79 WK)”, the carcinogen call was “inactive; negative”.

As for `C[C@]12CC[C@H](O)CC1=CC[C@@H]1[C@@H]2CC[C@]2(C)C(=O)CC[C@@H]12`, the carcinogen call is “active; positive” (Species: FISH, Strain/Sex: RAINBOW TROUT/MALE, FEMALE, Route: ORAL, Dose: 0, 55, 111, 222, 444, 888 PPM IN DIET 1/D 5 D/WK FOR 42 WK (STUDY DURATION: 42 WK), Dose: 0, 55, 111, 222, 444, 888 PPM IN DIET 1/D 5 D/WK FOR 42 WK (STUDY DURATION: 42 WK), Tumor Site: Type of Lesion: LIVER: TUMOR); “active; positive” (Species: FISH, Strain/Sex: RAINBOW TROUT/MALE,FEMALE, Route: ORAL, Dose: 0, 55, 111, 222, 444, 888 PPM IN DIET FOR 7 MO (STUDY DURATION: 10 MO), Dose: 0, 55, 111, 222, 444, 888 PPM IN DIET FOR 7 MO (STUDY DURATION: 10 MO), Tumor Site: Type of Lesion: LIVER: TUMOR); “active; positive” (Species: RAT, Strain/Sex: F344/MALE, Route: ORAL, Dose: 0, 0.45% (WEIGHT/WEIGHT) IN SEMIPURIFIED DIET OIL STRIPPED OF VITAMIN E FOR STUDY DURATION, (STUDY DURATION: 84 WK), Dose: 0, 0.45% (WEIGHT/WEIGHT) IN SEMIPURIFIED DIET OIL STRIPPED OF VITAMIN E FOR STUDY DURATION, (STUDY DURATION: 84 WK), Tumor Site: Type of Lesion: LIVER: HEPATOCELLULAR CARCINOMA); “active; positive” (Species: RAT, Strain/Sex: F344/MALE, Route: ORAL, Dose: 0, 0.5, 1% IN DIET FOR 78 WK (STUDY DURATION: 78 WK), Dose: 0, 0.5, 1% IN DIET FOR 78 WK (STUDY DURATION: 78 WK), Tumor Site: Type of Lesion: LIVER: NEOPLASM).

On to `c1ccc2cc3c4ccccc4c4ccccc4c3cc2c1`, for which the carcinogen call (Species: MOUSE, Strain/Sex: B6C3F1/MALE, Route: INTRAPERITONEAL, Dose: 0, 400 NMOL IN 35 µL DMSO ON DAYS 1 (1/7 TOTAL DOSE), 8 (2/7 TOTAL DOSE), AND 15 (4/7 TOTAL DOSE) AFTER BIRTH (STUDY DUR) was “inactive; negative”.

Regarding `CC(C)CCC[C@@H](C)[C@H]1CC[C@H]2[C@@H]3C[C@H]4O[C@]45C[C@@H](O)CC[C@]5(C)[C@H]3CC[C@]12C`, the carcinogen call (Species: RAT, Strain/Sex: STRAIN-CD/FEMALE, Route: INJECTION, Dose: 0, 12.3 UMOL (TOTAL DOSE) 1/6 INJECTED UNDER EACH OF 3 THORACIC AND 3 INGUINAL NIPPLES ONCE (STUDY DURATION: 44 WK)) was “inactive; negative”.

As to `OC[C@@H](O)[C@@H](O[C@@H]1O[C@H](CO)[C@H](O)[C@H](O)[C@H]1O)[C@H](O)[C@@H](O)CO`, the carcinogen call was “inactive; negative” (Species: MOUSE, Strain/Sex: CPB:SWISS/FEMALE, Route: ORAL, Dose: 0, 2, 5, 10% IN DIET FOR 104 WK (STUDY DURATION: 734 D), Dose: 0, 2, 5, 10% IN DIET FOR 104 WK (STUDY DURATION: 734 D)); “inactive; negative” (Species: MOUSE, Strain/Sex: CPB:SWISS/MALE, Route: ORAL, Dose: 0, 2, 5, 10% IN DIET FOR 104 WK (STUDY DURATION: 730 D), Dose: 0, 2, 5, 10% IN DIET FOR 104 WK (STUDY DURATION: 730 D)); “inactive; negative” (Species: RAT, Strain/Sex: SPF/FEMALE, Route: ORAL, Dose: 0, 2, 5, 10% IN DIET FOR DURATION OF STUDY ADMINISTERED TO OFFSPRING OF RATS FED THE SAME DIETS (STUDY DURATION: 130 WK), Dose: 0, 2, 5, 10% IN DIET FOR DURATION OF STUDY ADMINISTERED TO OFFSPRING OF RATS FED THE SAME DIETS (STUDY DURATION: 130 WK)); “active; positive” (Species: RAT, Strain/Sex: SPF/MALE, Route: ORAL, Dose: 0, 2, 5, 10% IN DIET FOR DURATION OF STUDY ADMINISTERED TO OFFSPRING OF RATS FED THE SAME DIETS (STUDY DURATION: 130 WK), Dose: 0, 2, 5, 10% IN DIET FOR DURATION OF STUDY ADMINISTERED TO OFFSPRING OF RATS FED THE SAME DIETS (STUDY DURATION: 130 WK), Tumor Site: Type of Lesion: TESTES: LEYDIG CELL TUMOR).
